Experimental data taken from US20080161399A1 (Ajinomoto Co., Inc., priority 2005, published 2008).

Target: T1, plasma albumin (Rattus norvegicus, UniProt P02770)
T1 construct: from tissue; host or cells: plasma of SD rats (carbon tetrachloride cirrhosis model and healthy controls)
Assay: L-tryptophan binding rate to plasma albumin (ultrafiltration, LC/MS)
Format: in vitro ADME
Settings: 37° C., n=2
Method: As a cirrhosis model rat, 25-week-old male SD rats (n=2) were prepared by administering carbon tetrachloride twice a week for 18 consecutive weeks and used, and 10-week-old healthy SD rats (n=2) were used as a control.
The plasma was preincubated at 37° C. for 20 min, 10 μL of L-tryptophan solution (10 mM) was added per 1 mL of plasma and they were mixed well (A). Solution A (450 μL) was dispensed to an ultrafiltration tube (Millipore, molecular weight 30,000 cut) and centrifuged at 3,000 g for 5 min at 37° C. to give 50 μL of filtrate (B) and 50 μL of unfiltrated solution (C). An equivalent amount of 8% (w/v) TCA solution was added to each of A and B, mixed and the mixture was centrifuged at room temperature and 3,000 g for 5 min. A protein-free supernatant was recovered. Thereto was added a 4-fold amount of 0.125% (v/v) heptafluorobutyric acid (HFBA) solution, mixed, diluted with 0.1% HFBA so that the concentration would fall within the range defined by the standard curve. Then, the concentration of L-tryptophan in each sample was quantified by the LC/MS method. The L-tryptophan binding rate to plasma albumin was shown by [1-(Trp concentration (B)/Trp concentration (A))]×100(%). The recovery rate was calculated by [Trp concentration (B)×50 μL+Trp concentration (C)×400 μL]/[Trp concentration (A)×450 μL]×100(%).

T1 sequence (P02770 25-608): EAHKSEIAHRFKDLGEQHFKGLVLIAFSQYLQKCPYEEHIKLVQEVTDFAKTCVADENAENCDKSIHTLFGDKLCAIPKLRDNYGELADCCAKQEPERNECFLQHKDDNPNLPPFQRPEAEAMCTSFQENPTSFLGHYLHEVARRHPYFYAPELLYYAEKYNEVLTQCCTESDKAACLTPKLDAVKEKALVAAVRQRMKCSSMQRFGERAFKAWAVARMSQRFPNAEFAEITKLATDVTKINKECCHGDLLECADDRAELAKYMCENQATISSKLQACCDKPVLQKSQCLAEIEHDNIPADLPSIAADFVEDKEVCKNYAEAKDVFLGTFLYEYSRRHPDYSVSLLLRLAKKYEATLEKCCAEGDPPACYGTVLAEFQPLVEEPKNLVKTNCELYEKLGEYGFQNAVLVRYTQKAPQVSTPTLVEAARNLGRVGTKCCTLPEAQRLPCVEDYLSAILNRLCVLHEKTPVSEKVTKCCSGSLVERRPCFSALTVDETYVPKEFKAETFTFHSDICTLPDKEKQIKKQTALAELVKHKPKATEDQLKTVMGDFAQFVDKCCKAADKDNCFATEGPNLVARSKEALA

## N[C@@H](Cc1c[nH]c2ccccc12)C(=O)O [L-tryptophan]
Plasma of cirrhosis model rats (carbon tetrachloride, 18 weeks)
  L-tryptophan binding rate to albumin: 48%
Plasma of normal (healthy SD) rats
  L-tryptophan binding rate to albumin: 83%
